# Assay: Extraction and back-extraction with p-diisopropylbenzene or 1,7-octadiene: rhodium concentration in both phases, composition of extraction solution
# Format: physicochemical
# Protocol: Examples […] illustrate yet another embodiment of the process of the present invention wherein extraction solution containing dissolved rhodium is back-extracted with either hydroformylation solvent or olefinic feedstock to reduce the concentration of rhodium in the extraction solution.
# The general procedure described in Examples 31-48 was used to extract 60.5 mL of hydroformylation product solution obtained by the hydroformylation of 1,7 octadiene in the presence of a catalyst system comprising rhodium and BISBI phosphine (Reference Example 9). […] The extraction flask was charged with the hydroformylation product solution, 37 mL methanol, 12 mL water and […] [Na] provided as sodium oleate.
# For Example 88, the extraction mixture was stirred at room temperature for 30 minutes and then drained into a calibrated, addition funnel and allowed to stand for about five minutes to permit phase separation. The volume of the hydroformylation product solution (organic) phase was 45 mL and the volume of the extraction solution phase was 65 ml. Samples of each phase were taken for rhodium and product composition analyses.
# For Example 89, the extraction solution phase separated in Example 88 was added to a clean 250 mL flask along with 30 mL of p-diisopropylbenzene and the mixture was stirred at 50° C. for 30 minutes, was allowed to stand at 50° C. for about 5 minutes to permit phase separation and then each phase was separated and analyzed for composition and rhodium concentration.
# For Example 90, the extraction solution separated in Example 89 was added to a clean 250 mL flask along with another 30 mL of p-diisopropylbenzene hydroformylation solvent. The mixture was agitated at 50° C. for thirty minutes, allowed to stand at 50° C. for 5 minutes to permit phase separation and each phase was analyzed for composition and rhodium concentration.
# This scheme would be useful in a counter-current extraction method for recycling recovered hydroformylation product solution as well as in using the olefinic feed to the reactor as a back extraction solvent for recovering soluble rhodium from the methanol/water extract.
# Example 91 was carried out using the procedure described in Examples 88. The flask was charged with 62 mL of a hydroformylation product solution (Reference Example 10) having a rhodium concentration 166 mg/L and containing 3.01 g of C9-enal, 12.69 g of C10-dial and 37.84 grams of p-diisopropylbenzene. Methanol (37 ml), water (16 ml) and 78 mg Na (as sodium 2-ethylhexanoate) were added to the flask. This mixture was stirred at 50° C. for 30 minutes and then allowed to stand for 5 minutes at 50° C. to permit phase separation. The hydroformylation product solution (organic) phase and the extraction solution phase were both sampled and analyzed for rhodium concentration. The 2 phases were drained into a clean, graduated addition funnel and the volumes of the two phases were measured. The volume of the organic layer was 43 mL and the extraction solution layer was 62 mL.
# For Example 92, the extraction solution phase produced in Example 91 was added to a clean, 250 mL flask along with 30 mL of p-diisopropylbenzene and the mixture was stirred at 50° C. for 30 minutes and then allowed to separate into two phases. The two phases were analyzed for rhodium concentration and composition. The mixture was drained into a clean addition funnel to separate the two phases. For Example 93, the extraction solution phase of Example 92 and 30 mL of 1,7-octadiene were added to a clean, 250 mL flask. This mixture was stirred at 50° C. for 30 minutes and then allowed to separate into two phases which were analyzed for rhodium concentration.
# The amounts (g) of C9-enal, C10-dial in the sample of hydroformylation product solution initially extracted and in the methanol/water extraction solutions resulting from Examples 91, 92 and 93 are given in Table XIII. The ratio given in Table XIII is the weight ratio of C10-dial:C9-enal. […]
# [1] = Example 88, initial extraction, sodium oleate
# [2] = Example 89, first back-extraction, p-diisopropylbenzene, 50° C.
# [3] = Example 90, second back-extraction, p-diisopropylbenzene, 50° C.
# [4] = Example 91, initial extraction, sodium 2-ethylhexanoate, 50° C.
# [5] = Example 92, back-extraction, p-diisopropylbenzene, 50° C.
# [6] = Example 94, initial extraction, no salt, 25° C.
# [7] = Example 95, back-extraction, p-diisopropylbenzene, 50° C.
structure (smiles),measurement,setting,value
"[Rh] [Rh, rhodium]","Rhodium Concentration, Extraction Solution Phase",[1],5.2 mg Rh per liter
same,"Rhodium Concentration, Organic Phase",[1],235 mg Rh per liter
same,"Rhodium Concentration, Extraction Solution Phase",[2],1.6 mg Rh per liter
same,"Rhodium Concentration, Organic Phase",[2],7.2 mg Rh per liter
same,"Rhodium Concentration, Extraction Solution Phase",[3],1.0 mg Rh per liter
same,"Rhodium Concentration, Organic Phase",[3],1.2 mg Rh per liter
same,"Rhodium Concentration, Extraction Solution Phase",[4],6.2 mg Rh per liter
same,"Rhodium Concentration, Organic Phase",[4],216 mg Rh per liter
same,"Rhodium Concentration, Extraction Solution Phase",[5],1.0 mg Rh per liter
same,"Rhodium Concentration, Organic Phase",[5],7.0 mg Rh per liter
same,"Rhodium Concentration, Organic Phase","Example 93, back-extraction, 1,7-octadiene, 50° C.",< 1 mg Rh per liter
same,"Rhodium Concentration, Extraction Solution Phase","Example 93, back-extraction, 1,7-octadiene, 50° C., listed as Rhodium",< 1 mg Rh per liter
same,"Rhodium Concentration, Extraction Solution Phase","Example 93, back-extraction, 1,7-octadiene, 50° C., listed as rhodium",below detection limits
same,"Rhodium Concentration, Extraction Solution Phase",[6],37 mg Rh per liter
same,"Rhodium Concentration, Organic Phase",[6],195 mg Rh per liter
same,"Rhodium Concentration, Extraction Solution Phase",[7],33 mg Rh per liter
same,"Rhodium Concentration, Organic Phase",[7],24 mg Rh per liter

# From US5138101A, “Recovery of high-boiling aldehydes from rhodium-catalyzed hydroformylation processes” (Eastman Kodak Company, priority 1991, dated 1992)
